Measured values reported in article PMC7822816, “Halo-fluorescein for photodynamic bacteria inactivation in extremely acidic conditions” (Nature Communications, 2021).
Where “and” joins values, the source holds several entries; their conditions need not be identical. Equal values may be shown once.

What was measured:
[1] = test system: C. albicans infection of oral mucosa; conditions: photosensitizer + light (510 nm TIF, 660 nm Ce 6 and Zn-tpp)
Source text: The extremely acidic environment was constructed through changing the pH of the mucosa and diluting PSs in pH 3.0 PBS buffer. […] During the investigations, the infected ICR mice were divided into six groups (six mice per group): blank, light, TIF, TIF + light, Ce 6 + light, and Zn-tpp + light. For comparison and better visualization of the infection, a normal group (no infection) was also included.
To construct the oral mucosal infection model, cotton balls immersed in solutions containing 10^8 CFU/mL of C. albicans were placed in the mouth of mice for 75 min. At day 1 and day 3, 50 μL pH 3.0 PBS and PSs (20 μM, diluted by pH 3.0 PBS) were added to oral mucosa, and treated with different lasers (510 nm for TIF, 660 nm for Ce 6 and Zn-tpp, 50 mW/cm^2) for 10 min.
To investigate the therapy effect, photographs, colonies, weights, and pathology index of mice were taken every other day. After day 3, one mouse in each group was sacrificed, and the tissues of oral mucosa were harvested for hematoxylin and eosin (H&E) staining. The pathology index was evaluated based on the standard given in Supplementary Table 10.

[2] = test system: C. albicans; test: Fresh food preservation (infected tomato model); parameters: species or system Candida albicans; conditions: 10 μM in pH 3.0 PBS, LED 35 mW/cm^2 10 min (620 nm Zn-tpp, 660 nm Ce 6)
Source text: Besides fruit juices, the potential of TIF for photo-assisted fresh food preservation was also investigated with tomato as the model (pH 3.0). […] Therefore, the food additive TIF is also promising for fresh food preservation.
Tomatoes were selected as the model for photo-assisted fresh food preservation. All the tomatoes were divided into six groups, and made a wound of ~7 cm^2 by hot water. […] Afterward, the tomatoes were stored at room temperature and then subjected to repeated irradiation at day 2. The total viable counts of bacteria on the infected tomatoes were measured in day 3.

[3] = Relative singlet oxygen quantum yield (1O2 phosphorescence, Rose Bengal standard); type: physicochemical; parameters: key: relative to Rose Bengal standard (ΦΔ = 0.75); conditions: for Singlet oxygen yield (ΦΔ): mixed solvent of D2O and CH3CN (1:15) (Supplementary Table 4); for singlet oxygen quantum yield (ΦΔ): pH = 10 media, relative, RB as the standard
Description: To permit the open-form structure of all fluorescein derivatives, all the measurements were carried out in pH = 10 media.
The singlet oxygen quantum yields (ΦΔ) of all fluorescein-based PSs were evaluated with Rose Bengal as the standard (ΦΔ = 0.75):1 ΦΔ=AsAbsorption/As(Emission)×ARB(Emission)/ARB(Absorption)×0.75 Here, the area of absorption (RB and PSs) was collected with an integrating sphere (λex = 510 nm), while the area of emission was obtained from the characterized 1270 nm ^1O2 phosphorescence emission. For collection of such emission, CH3CN and D2O mixed solvent (v (D2O): v (CH3CN) = 1:15, pH = 9.0, adjusted with 0.001 M NaOH) was used, since H2O can severely quench the singlet oxygen luminescence. For all the measurements, the concentrations of the PSs were set at 10 μM.
S6.3 Relative singlet oxygen quantum yield
The singlet O2 quantum yield of photosensitizers were measured by Fluolog-3 spectrofluorometer with an integration sphere (IS80, Labsphere) and NIR detector (Hamamatsu H-10330) in this work.
For better collection of the characterized singlet oxygen phosphorescence emission (1275 nm), CH3CN and D2O mixed solvent was used (H2O can severely quench the singlet oxygen luminescence). The 10 mM stock solutions in CH3CN and D2O mixed solvent (VCH3CN:VD2O = 15:1) were first prepared. The stock solutions were diluted to 10 μM, and the final volume was 2 mL. In addition, the CH3CN and D2O mixed solvent as blank was also prepared.
1. Turn on the instrument and the start software, the light source is xenon lamp.
2. From the experiment menu, selected spectra, emission. The 1O2 emission phosphorescence spectra are first measured.
3. The parameters setting are listed: a. Excitation wavelength: 510 nm

[4] = Photophysical characterization (absorption, fluorescence, phosphorescence, lifetime); type: physicochemical; conditions: for ΦFL: 5 μM in 0.5% (v/v) DMSO, diluted with 0.1 M NaOH; for λAbs / λPh / λem: 2% DMSO; for τfl: fluorescence lifetime, 5 μM in 0.5% DMSO, 0.1 M NaOH
Description: Section S6. Photophysical Characterizations
S6.1 Absorption, fluorescence, and phosphorescence spectra
Fluorescein and its derivatives were dissolved in DMSO to obtain 1 mM stock solutions.
The stock solutions were diluted with deionized water to 10 μM.
Supplementary Figure 20. The absorption (black), fluorescence (blue), and phosphorescence (red, slit 25 nm) spectra of FL.
Supplementary Figure 21. The absorption (black), fluorescence (blue), and phosphorescence (red, slit 25 nm) spectra of DCF.
S6.2 Fluorescence lifetime
Fluorescence decay samples was recorded with Fluorolog-3 (Horiba). The solution of samples were prepared to be 5 μM in 0.5% (v/v) DMSO, and diluted with 0.1M NaOH.
S6.5 Photophysical properties of the halogenated-fluorescein derivatives
Supplementary Table 4. Photophysical Properties of Halogenated-fluorescein derivatives. […]
a Measured in 2% DMSO; b Measured in 2% DMSO citric acid -disodium hydrogen phosphate buffer; c Measured in a mixed solvent of D 2O and CH3CN (VD2O:
VCH3CN = 1: 15); d The solution of samples were prepared to be 5 μM in 0.5% (v/v) DMSO, and diluted with 0.1 M NaOH.

[5] = pH titration of halogenated fluorescein (pH0.5); type: physicochemical; conditions: for lowering of pH0.5 compared with fluorescein: difference to fluorescein (6.09)
Description: The pH0.5 values (the pH value when the open form reduce to the half of the maximum) of various fluorescein derivatives were determined experimentally through pH titration (Supplementary Figs. 6–16).
The pH of the solutions were adjusted through varying the ratios of citric acid and Na2HPO4 (pH 2.2–8.0), and further acidity was adjusted with concentrated HCl or 1 M NaOH. The absorption and fluorescence spectra of the resultant solutions were then collected.
Section S5. pH-dependent Properties of the Halogenated Fluoresceins.
S5.1 pH titration of halogenated fluorescein
Fluorescein derivatives (Supplementary Table 1) were dissolved in DMSO to obtain 1 mM stock solutions and then diluted with citric acid-Na2HPO4 buffer (100 mM) to 10
μM. The pH of the solutions were adjusted through varying the ratios of citric acid and Na2HPO4 (pH 2.2-8.0), and further acidity was adjusted with concentrated HCl or 1 M
NaOH. The absorption and fluorescence spectra of the resultant solutions were then

[6] = test system: MRSA; conditions: dose 100 mg/L, 360 J/cm2; cited from earlier work
[7] = parameters: method as in PMID 10546544; conditions: Rose Bengal as the standard; cited from earlier work
[8] = test system: L. plantarum; test: Photodynamic inhibition of L. plantarum (coating plate method); type: cell-based, Lactobacillus plantarum; conditions: 0.5 μM photosensitizer, irradiated 10 min, pH 2.5; 620 nm red LED for Zn-tpp and PC
[9] = test system: E.coli; conditions: dose 0.5 μM, 20 min; cited from earlier work
[10] = 2% DMSO citric acid-disodium hydrogen phosphate buffer (Supplementary Table 4)
[11] = pH value when the open form reduces to half of the maximum, pH titration, 10 μM, citric acid–Na2HPO4 buffer

| Compound | H&E staining of tongue sections, with light [1] | wound infection of tomatoes, with light [2] | Singlet oxygen yield (ΦΔ) [3] | singlet oxygen quantum yield (ΦΔ) [3] | kdec [4] [s⁻¹] | knr [4] [s⁻¹] | krad [4] [s⁻¹] | ΦFL [4] | λAbs [4] [nm] | λPh [4] [nm] | λem [4] [nm] | τfl [4] [ns] | pH0.5 [5, 10] | pH0.5 [5, 11] | Inhibition ratio [6] [log10] | singlet oxygen quantum yield (ΦΔ) of the standard [7] | lowering of pH0.5 compared with fluorescein [5] [units] | antimicrobial activity (survival rate of L. plantarum) [8] | Inhibition ratio [9] [log10] |
| --- | --- | --- | --- | --- | --- | --- | --- | --- | --- | --- | --- | --- | --- | --- | --- | --- | --- | --- | --- |
| C=Cc1c(C)c2cc3nc(c(CC(=O)O)c4[nH]c(cc5nc(cc1[nH]2)C(C)=C5CC)c(C)c4C(=O)O)[C@@H](CCC(=O)O)[C@@H]3C [Ce 6, reference compound] | large amounts of inflammation infiltration | different magnitudes of wound infection | – | – | – | – | – | – | – | – | – | – | – | – | – | – | – | – | – |
| O=C(O)c1ccccc1-c1c2ccc(=O)c(Br)c-2oc2c(Br)c(O)ccc12 [DBF, Dibromo-fluorescein] | – | – | 0.26 | 0.19 | 5.03e+08 | 3.5e+08 | 1.52e+08 | 0.303 | 504 | 685 | 531 | 1.99 | 4.63 | 4.63 and 4.52 | – | – | – | – | – |
| O=C(O)c1ccccc1-c1c2ccc(=O)c(I)c-2oc2c(I)c(O)ccc12 [DIF, Diiodo-fluorescein] | – | – | – | 0.63 | 1e+11 | 9.99e+10 | 1e+08 | 0.001 | 527 | 699 | 549 | 0.01 | 4.13 | 4.13 | – | – | – | – | – |
| CN(C)c1ccc2nc3ccc(=[N+](C)C)cc-3sc2c1 [Methylene Blue] | – | – | – | – | – | – | – | – | – | – | – | – | – | – | 4.7 | – | – | – | – |
| O=C(O)c1c(Cl)c(Cl)c(Cl)c(Cl)c1-c1c2cc(Cl)c(=O)c(Cl)c-2oc2c(Cl)c(O)c(Cl)cc12 [OCF, Octachloro-fluorescein] | – | – | 0.11 | 0.11 | 2.31e+08 | 9.3e+07 | 1.38e+08 | 0.597 | 537 | 676 | 556 | 4.33 | 3.41 | 3.41 | – | – | – | – | – |
| O=C(O)c1c(Cl)c(Cl)c(Cl)c(Cl)c1-c1c2cc(Br)c(=O)c(Br)c-2oc2c(Br)c(O)c(Br)cc12 [PB, Tetrabromo-tetrachloro-fluorescein] | – | – | – | 0.26 | 8e+08 | 6.64e+08 | 1.36e+08 | 0.170 | 539 | 730 | 560 | 1.25 | 3.45 | 3.45 | – | – | – | – | – |
| O=C(O)c1c(Cl)c(Cl)c(Cl)c(Cl)c1-c1c2cc(I)c(=O)c(I)c-2oc2c(I)c(O)c(I)cc12 [RB, Tetraiodo-tetrachloro-fluorescein] | – | – | 0.75 | 0.75 | 1e+11 | 9.97e+10 | 3e+08 | 0.003 | 550 | 732 | 570 | 0.01 | 3.99 | 3.99 | – | 0.75 | – | – | – |
| O=C(O)c1ccccc1-c1c2cc(Cl)c(=O)c(Cl)c-2oc2c(Cl)c(O)c(Cl)cc12 [TCF-1, Tetrachloro-fluorescein-1] | – | – | 0.06 | 0.06 | 2.44e+08 | 7.8e+07 | 1.66e+08 | 0.680 | 515 | 655 | 536 | 4.09 | 2.79 | 2.79 | – | – | 3.30 | – | – |
| O=C(O)c1c(Cl)c(Cl)c(Cl)c(Cl)c1-c1c2ccc(=O)cc-2oc2cc(O)ccc12 [TCF-2, Tetrachloro-fluorescein-2] | – | – | – | 0.05 | 2.05e+08 | 3e+07 | 1.75e+08 | 0.854 | 511 | 637 | 531 | 4.87 | 5.89 | 5.89 and 5.93 | – | – | 0.16 | – | – |
| C1=Cc2nc1c(-c1ccccc1)c1ccc([n-]1)c(-c1ccccc1)c1nc(c(-c3ccccc3)c3ccc([n-]3)c2-c2ccccc2)C=C1.[Zn+2] [Zn-tpp, Zinc(II) tetraphenylporphyrin, reference compound] | large amounts of inflammation infiltration | different magnitudes of wound infection | – | – | – | – | – | – | – | – | – | – | – | – | – | – | – | no obvious antimicrobial activity | – |
| Dichloro-fluorescein [DCF] | – | – | – | 0.04 | 2.31e+08 | 7.7e+07 | 1.54e+08 | 0.668 | 502 | 645 | 529 | 4.33 | 4.77 | 4.77 | – | – | – | – | – |
| Fluorescein | – | – | – | 0.01 | 2.18e+08 | 3.1e+07 | 1.87e+08 | 0.858 | 491 | 638 | 515 | 4.58 | 6.09 | 6.09 | – | – | – | – | – |
| [Ru(bpy)2(dppn)]2+ | – | – | – | – | – | – | – | – | – | – | – | – | – | – | – | – | – | – | 5.4 |
